21 compounds from ChEMBL document CHEMBL4765250, “Discovery of hydrazone containing thiadiazoles as Mycobacterium tuberculosis growth and enoyl acyl carrier protein reductase (InhA) inhibitors” (Eur J Med Chem, 2020) can be followed below.

Data set [1] concerns Mycobacterium tuberculosis. Put plainly: Antitubercular activity against Mycobacterium tuberculosis H37Rv measured after 7 days by MABA method. Format: functional. The following applies: 168 h, time 7 day. (In general: Resazurin is reduced to fluorescent resorufin, in cell work by metabolically active cells.)
The nature of data set [2]: Cytotoxicity against mouse RAW264.7 cells assessed as decrease cell viability at 50 ug/ml measured after 48 hrs by MTT assay. The class given is cell-based. The following applies: at 50 µg/mL, read-out: INH. (Formazan colour is commonly taken as a measure of viable cells.)
For data set [3], the target named is T1, Enoyl-[acyl-carrier-protein] reductase [NADH] (Mycobacterium tuberculosis) (UniProt P9WGR1).
T1 sequence (whole entry): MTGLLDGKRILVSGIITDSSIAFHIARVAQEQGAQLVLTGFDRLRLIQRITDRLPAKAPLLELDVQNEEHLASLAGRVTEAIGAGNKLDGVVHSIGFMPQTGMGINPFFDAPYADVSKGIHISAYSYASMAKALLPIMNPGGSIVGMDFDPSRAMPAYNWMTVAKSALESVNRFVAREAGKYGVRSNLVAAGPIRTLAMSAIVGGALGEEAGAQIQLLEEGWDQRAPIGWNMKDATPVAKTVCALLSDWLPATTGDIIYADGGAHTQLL
Put plainly: Inhibition of wild type InhA in Mycobacterium tuberculosis H37Rv using trans-2-dodecenoyl-coenzyme A as substrate at 5 uM.

Data set [4] has as its system Mycobacterium tuberculosis. Put plainly: Antitubercular activity at Mycobacterium tuberculosis H37Rv in nutrition starved condition medium assessed as log reduction of cell growth at 10 ug/ml measured after 7 days by MPN method. The following applies: dose 10 µg/ml; time 7 day. Format: functional.
Data set [5] is described as follows: Solubility of compound in aqueous buffer at pH 6.8. The class given is physicochemical.

In brackets after ≈: the same amount, converted by molar mass. Where only a bound is given, the exact number is not on record here.

In general, MIC refers to the lowest concentration found to suppress growth. As for `Cc1ccc(/C=N/Nc2nsc(Nc3ccc([N+](=O)[O-])cc3)n2)cc1`, the MIC in data set [1] is > 70.6 µM. For orientation: inhibition means the change of the read-out against control, counted positive when it falls. Low readings indicate little suppression, high ones strong suppression. For `Cc1ccc(Nc2nc(N/N=C/c3ccccc3)ns2)cc1`, the cytotoxicity at 48 h, 50 ug/ml in data set [2] amounted to 31.5%. The same compound had a minimum inhibitory concentration (MIC) in data set [1] of 2.52 µM (≈ 0.78 µg/mL). Further, in data set [3], the inhibition turned out to be 48%. The FC in data set [4] amounted to 2.4. Regarding `Cc1ccc(/C=N/Nc2nsc(Nc3ccc(I)cc3)n2)cc1`, the cytotoxicity at 48 h, 50 ug/ml in data set [2] stood at 21.1%. The compound also displayed a minimum inhibitory concentration (MIC) in data set [1] of 3.59 µM (≈ 1.56 µg/mL). Turning to `Cc1ccc(/C=N/Nc2nsc(Nc3ccc(C(F)(F)F)cc3)n2)cc1`, the cytotoxicity at 48 h, 50 ug/ml in data set [2] worked out at 29.1%. In addition, in data set [1], the minimal inhibitory concentration (MIC) is 16.6 µM (≈ 6.26 µg/mL). Moreover, the inhibition in data set [3] is 35%.

On to `Cc1ccc(/C=N/Nc2nsc(Nc3ccc(Br)cc3)n2)cc1`, for which, in data set [1], the minimum inhibitory concentration (MIC) is > 64.4 µM. Regarding `CO[C@H]1/C=C/O[C@@]2(C)Oc3c(C)c(O)c4c(O)c(c(/C=N/N5CCN(C)CC5)c(O)c4c3C2=O)NC(=O)/C(C)=C\C=C\[C@H](C)[C@H](O)[C@@H](C)[C@@H](O)[C@@H](C)[C@H](OC(C)=O)[C@@H]1C` [RIFAMPIN], in data set [1], the MIC was determined as 0.12 µM (≈ 0.0988 µg/mL). In addition, the FC in data set [4] was 1.6. In the case of `Brc1ccc(Nc2nc(N/N=C/c3ccccc3)ns2)cc1`, the cytotoxicity at 48 h, 50 ug/ml in data set [2] amounted to 25.8%. The compound also gave an MIC in data set [1] of 4.17 µM (≈ 1.56 µg/mL). The inhibition in data set [3] came out at 39%. `NNC(=O)c1ccncc1` [ISONIAZID] had an MIC in data set [1] of 0.36 µM (≈ 0.0494 µg/mL). In addition, the FC in data set [4] is given as 1.4. Take `C(=N\Nc1nsc(Nc2ccccc2)n1)/c1ccccc1`: in data set [1], the minimum inhibitory concentration (MIC) was > 84.8 µM. `Cc1ccc(/C=N/Nc2nsc(Nc3ccc(C)cc3)n2)cc1`: the minimum inhibitory concentration (MIC) in data set [1] was > 77.4 µM. The same measure, in the same setting: the figure for `FC(F)(F)c1ccc(Nc2nc(N/N=C/c3ccccc3)ns2)cc1` is 34.4 µM (≈ 12.5 µg/mL).

For `Cc1ccc(/C=N/Nc2nsc(Nc3ccc(Cl)cc3Cl)n2)cc1`, the cytotoxicity at 48 h, 50 ug/ml in data set [2] stood at 33.1%. The compound further gave a minimal inhibitory concentration (MIC) in data set [1] of 8.27 µM (≈ 3.13 µg/mL). Also, the inhibition in data set [3] came out at 48%.

As to `COc1ccc(Nc2nc(N/N=C/c3ccc(C)cc3)ns2)cc1`, the minimum inhibitory concentration (MIC) in data set [1] was > 73.8 µM. In the case of `Cc1ccc(/C=N/Nc2nsc(Nc3ccccc3)n2)cc1`, the MIC in data set [1] was > 80.9 µM. Same read-out and setting: under `Fc1ccc(Nc2nc(N/N=C/c3ccccc3)ns2)cc1` stands > 79.9 µM. For `COc1ccc(Nc2nc(N/N=C/c3ccccc3)ns2)cc1`, the cytotoxicity at 48 h, 50 ug/ml in data set [2] stood at 24.6%. In data set [1], this compound came in with an MIC of 2.4 µM (≈ 0.781 µg/mL). The FC in data set [4] is on record as 2.2.

In turn, `Ic1ccc(Nc2nc(N/N=C/c3ccccc3)ns2)cc1` showed an MIC in data set [1] of 59.4 µM (≈ 25 µg/mL). In data set [5], the solubility result is recorded as “Insoluble”.

In the case of `Clc1ccc(Nc2nc(N/N=C/c3ccccc3)ns2)c(Cl)c1`, the minimal inhibitory concentration (MIC) in data set [1] was 4.29 µM (≈ 1.56 µg/mL). As to `CC[C@@H](CO)NCCN[C@@H](CC)CO` [ETHAMBUTOL], 7.6 µM (≈ 1.55 µg/mL) was the least that counted as inhibitory in data set [1] (MIC). With `O=[N+]([O-])c1ccc(Nc2nc(N/N=C/c3ccccc3)ns2)cc1`, it took 73.5 µM (≈ 25 µg/mL) to inhibit growth in data set [1] (MIC). Turning to `Cc1ccc(/C=N/Nc2nsc(Nc3ccc(F)cc3)n2)cc1`, in data set [1], the minimal inhibitory concentration (MIC) was > 76.5 µM. The compound also showed an inhibition in data set [3] of 26%.
